According to patent US20190192458A1, “THERAPEUTIC/PROPHYLACTIC AGENT FOR GRAFT-VERSUS-HOST DISEASE, FIBROCYTE INVASION INHIBITOR, AND INHIBITOR AGAINST TEAR REDUCTION AND REDUCTION IN GOBLET CELLS” (KEIO UNIVERSITY, priority 2016, published 2019):

System: mouse lacrimal gland fibroblasts
Assay: Cultured lacrimal gland fibroblasts from PBA-treated and vehicle-treated mice (immunoblot, ELISA, qPCR)
Type: cell-based
Method: Bone marrow transplantation was performed as described in the above section “Bone marrow transplantation,” and the resulting allogeneic bone marrow transplantation recipient mice were divided into two groups. One group was treated with intraperitoneal injection of PBA (10 mg/kg) (Aldrich) while the other was treated with intraperitoneal injection of a solvent vehicle⋅phosphate buffered saline (PBS) (pH 7.4). The allogeneic bone marrow transplantation recipients received once-daily administration of PBA or the solvent vehicle from Day 10 to Day 27 after bone marrow transplantation. They were sacrificed on Day 28 after bone marrow transplantation.
Fibroblasts from a mouse lacrimal gland were cultured by an established method reported by Yaguchi et al. (Yaguchi S, Ogawa Y, Shimmura S, et al., Presence and Physiologic Function of the Renin—Angiotensin System in Mouse Lacrimal Gland. Investigative Ophthalmology & Visual Science, 2012; 53: 5416-5425). A mouse lacrimal gland was collected and cut into small pieces. The tissue pieces were incubated at 37° C. in DMEM (Life Technologies Japan Ltd.) containing 5% of fetal bovine serum (FBS) Sigma), and 5% of an antibiotic. The antibiotic included a 1:1 mixture of streptomycin sulfate (Meiji Seika Pharma Co., Ltd.) and benzylpenicillin potassium (Meiji Seika Kaisha, Ltd.). The small pieces were used to grow fibroblasts starting from 3 to 4 days later. Fibroblasts were cultured in DMEM containing 5% of FBS and 5% of the antibiotic, and were used in experiments after 3 to 5 passages. Trypsin (Becton Dickinson) was used to detach fibroblasts from the culture dish.
The total RNA was extracted from the exorbital lacrimal gland, the proximal portion of the small intestine, the dorsal skin, the liver, the cultured fibroblasts, and the cultured macrophages using a miRNeasy mini kit (Qiagen), and the corresponding complementary DNAs were synthesized using a Rever Tra Ace qPCR RT kit (Toyobo Co., Ltd.). Primers used for analyzing the mRNA expression of the following genes with the TaqMan real-time polymerase chain reaction (PCR) were purchased from Applied Biosystems: housekeeping gene […] (GAPDH), glucose-regulated protein 78 (GRP78), Interleukin-1β (IL-1β), IL-6, IL-10, macrophage chemoattractant protein-1 (MCP-1), and transcription growth factor-β (TGF). A Step One Plus system (Applied Biosystems) was used to perform quantitative real time PCR, and the resulting data was analyzed by the 2^−ΔΔCT method. GAPDH was used as an internal standard for measuring the expression of mRNA.
Tissues of interest were each placed into an Eppendorf tube, and a pre-cooled RIPA buffer solution was then added to the tube. Subsequently, the tissues were each homogenized with an electric homogenizer. Samples were each allowed to stand on ice for 1 hour, and then centrifuged at 15000 rpm for 5 minutes at 4° C. Then, the supernatants were each collected in a fresh tube on ice, and used as a cell lysate. The cell lysates each received the same amount of a 5×Laemmli buffer solution, and each was heated at 100° C. for 5 minutes to denature proteins.
An aliquot of each sample having the same amount of proteins was loaded into a well of an SDS-PAGE gel, and then […]. Proteins were transferred from the gel to a membrane at 15 V for 20 minutes. The membrane was blocked at room temperature for 1 hour with 5% skim milk or 5% BSA (bovine serum albumin) in 1×TBST (a mixture of Tris-buffered saline and Tween 20). Subsequently, the membrane was incubated with a primary antibody at 4° C. overnight. The above primary antibody was diluted 1000 times with 5% skim milk or 5% BSA in 1×TBST. After incubation with the primary antibody, the membrane was washed with 1×TBST (3×10 minutes), and subjected to a secondary antibody at room temperature for 1 hour, and then washed with 1×TBST (3×10 minutes) and 1×TBS (2×10 minutes).
Proteins of interest were visualized by either one of the following two methods. […]

[1] = PBA-treated vs vehicle-treated fibroblasts, immunoblot, n=4
[2] = cultured fibroblasts from PBA-treated vs vehicle-treated mice, immunoblot

In the case of `O=C(O)CCCc1ccccc1` [PBA, 4-phenyl-n-butyric acid], the “production of MCP-1 by lacrimal gland fibroblasts” value (PBA-treated vs vehicle-treated fibroblasts, ELISA, n=4) is reported as “decreased”, the “protein level of CTGF in lacrimal gland fibroblasts” value [1] is reported as “decreased” and the “protein level of HSP47 in lacrimal gland fibroblasts” value [1] is reported as “decreased”. For the same compound, the “mRNA levels of IL-6 in lacrimal gland fibroblasts” value (PBA-treated vs vehicle-treated fibroblasts, qPCR, n=4) was “decreased”, the “CHOP in lacrimal gland fibroblasts” value [2] was “markedly inhibited” and the “GRP78 in lacrimal gland fibroblasts” value [2] was “markedly inhibited”. The “phosphorylated IRE1α in lacrimal gland fibroblasts” value [2] was “markedly inhibited”, the “phosphorylated PERK in lacrimal gland fibroblasts” value [2] was “markedly inhibited” and the “phosphorylated eIF2α in lacrimal gland fibroblasts” value [2] was “markedly inhibited”.
